The values that follow come from ChEMBL document CHEMBL4513153, “CO-ADD screening of University of Northwestern St. Paul (MN, USA) compounds”.

A value given as a limit tells only on which side of the number the result lay.

The term CC50 denotes the concentration that lowers cell viability or growth by half. A higher CC50 goes with better tolerance by the cells.

One assay relates to Acinetobacter baumannii. The assay is described as follows: microbe, parasite or virus in culture. Conditions: ATCC 19606, 18 h, ASSAY_TEST Inhibition of Bacterial Growth, detection method Absorption (OD600), MEDIA CAMHB, plate type 384well, NBS, CORNING #3640.
A further assay concerns Staphylococcus aureus. The assay is described as follows: microbe, parasite or virus in culture. Conditions: ATCC 43300, 18 h, ASSAY_TEST Inhibition of Bacterial Growth, detection method Absorption (OD600), MEDIA CAMHB, plate type 384well, NBS, CORNING #3640.
In the next assay the test system is Pseudomonas aeruginosa. The assay is described as follows: microbe, parasite or virus in culture. The conditions noted are these: ATCC 27853, 18 h, ASSAY_TEST Inhibition of Bacterial Growth, detection method Absorption (OD600), MEDIA CAMHB, plate type 384well, NBS, CORNING #3640.
The subject of a further assay is HEK293. The assay is described as follows: cells. It counts as functional. The conditions noted are these: Homo sapiens, ATCC CRL1573, HEK293; ASSAY_TEST Inhibition of Cell Viability; detection method Resazurin; Fluorescence (ex560/em590); MEDIA DMEM with 10% FBS; plate type 384well; TC; CORNING #3712; time 18 hr. For orientation: Alamar Blue is a resazurin reagent that responds to reducing activity.

The next assay relates to Candida albicans. The assay is described as follows: microbe, parasite or virus in culture. The conditions noted are these: ATCC 90028, ASSAY_TEST Inhibition of Fungal Growth, detection method Absorption (OD530), plate type 384well, NBS, CORNING #3640.
In the next assay the test system is Escherichia coli. The assay is described as follows: microbe, parasite or virus in culture. The conditions noted are these: ATCC 25922, 18 h, ASSAY_TEST Inhibition of Bacterial Growth, detection method Absorption (OD600), MEDIA CAMHB, plate type 384well, NBS, CORNING #3640.
A further assay concerns Klebsiella pneumoniae. Kind of assay: microbe, parasite or virus in culture. The conditions noted are these: ATCC 700603, 18 h, ASSAY_TEST Inhibition of Bacterial Growth, detection method Absorption (OD600), MEDIA CAMHB, plate type 384well, NBS, CORNING #3640.

Description for Acinetobacter baumannii: Antibacterial activity against Acinetobacter baumannii ATCC 19606 (CO-ADD:GN_034); MIC in CAMBH media using NBS plates, by OD600
Description for Candida albicans: Antifungal activity against Candida albicans ATCC 90028 (CO-ADD:FG_001); MIC in YNB media using NBS plates, by OD630
Description for Cryptococcus neoformans: Antifungal activity against Cryptococcus neoformans H99 ATCC 208821 (CO-ADD:FG_002); MIC in YNB media using NBS plates, by Resazurin OD(600-570)
Description for Escherichia coli: Antibacterial activity against Escherichia coli ATCC 25922 (CO-ADD:GN_001); MIC in CAMBH media using NBS plates, by OD(600)
Description for Klebsiella pneumoniae: Antibacterial activity against Klebsiella pneumoniae MDR ATCC 70063 (CO-ADD:GN_003); MIC in CAMBH media using NBS plates, by OD(600)
Description for Pseudomonas aeruginosa: Antibacterial activity against Pseudomonas aeruginosa ATCC 27853 (CO-ADD:GN_042); MIC in CAMBH media using NBS plates, by OD(600)
Description for Staphylococcus aureus: Antibacterial activity against Staphylococcus aureus MRSA ATCC 43300 (CO-ADD:GP_020); MIC in CAMBH media, using NBS plates, by OD(600)

Consider `Cl.N=C(N)Nc1nc(-c2c[nH]c3ccccc23)cs1`, for which the MIC against Acinetobacter baumannii was over 32 µg/mL; in the assay on Staphylococcus aureus it was over 32 µg/mL; in the assay with Pseudomonas aeruginosa, over 32 µg/mL; with Candida albicans it was over 32 µg/mL; in the assay with Escherichia coli it was over 32 µg/mL; against Cryptococcus neoformans it was 16 µg/mL. Also, in the assay with Klebsiella pneumoniae, the MIC was over 32 µg/mL. The compound also showed a CC50 in the assay with HEK293 of 9.6 µg/mL.

`NC(N)=Nc1nc(-c2csc3ccccc23)cs1`: the MIC against Acinetobacter baumannii, in the assay on Staphylococcus aureus, against Pseudomonas aeruginosa, against Candida albicans, in the assay on Escherichia coli and in the assay with Cryptococcus neoformans was over 32 µg/mL each time. The compound also came in with an MIC in the assay with Klebsiella pneumoniae of over 32 µg/mL. This compound also showed a CC50 with HEK293 of over 32 µg/mL.
